The values below come from US11696928B2, “Compounds and use thereof in the expansion of stem cells and/or progenitor cells” (UNIVERSITE DE MONTREAL, priority 2017, dated 2023).

The test system of series [1] is Human CD34+ cord blood (CB) cells. The experiment in a line: CD34+ activity assessment (7-day expansion of pre-expanded CD34+ cells, flow cytometry). To be noted: concentration at which compound/vehicle ratio of CD34+ cell number is >= 1.5; 7 days, with 35 nM UM0128171; Table 1. Type of series: cell-based. The protocol: Human CD34+ cord blood (CB) cells were isolated from fresh units using RosetteSep™ 0034 pre-enrichment cocktail followed by CD34 positive selection using EasySep Kit™ (StemCell Technologies). The cells were then pre-expanded in bulk, by culturing at 37° C. for 6 days in HSC expansion media consisting of StemSpan ACF (StemCell Technologies) supplemented with 100 ng/mL Stem Cell Factor (SCF, Shenandoah), 100 ng/mL FMS-like Tyrosine Kinase 3 Ligand (FLT3L, Shenandoah), 50 ng/mL Thrombopoietin (TPO, Shenandoah), 2 mM GlutaMAX™ (Invitrogen), 10 μg/mL low density lipoproteins (LDL, StemCell Technologies), 10 μg/mL Ciprofloxacin and 35 nM UM0128171. […] Following the pre-expansion, cells were harvested, aliquoted and frozen until use.
For each activity assessment, CD34+ pre-expanded cells (approximately 2000 per well in a 384-well plate) were cultured in HSC expansion media, in the presence of 35 nM UM0128171. Compounds were serially diluted (1/2) in DMSO (10 dilutions per compound) and added to the cells in order to achieve a 1/1000 final dilution. StemRegenin1 (SR1) and/or Compound 1001 were included in all experiments as controls to monitor assay performance. The plate was incubated at 37° C. for 7 days in static conditions (i.e. no shaking and no addition of media). Flow cytometry analysis was performed at the end of the 7-day expansion. Cells were stained with PE-labeled anti-human CD45RA (BD Biosciences) and APC-labeled anti-human CD34 (BD Biosciences) and analyzed using Intellicyt IQue cytometer equipped with ForeCyt software. Gates were drawn around the populations of interest to obtain cell numbers and relative proportions. The EC1.5 value, which is the concentration at which the compound/vehicle ratio is greater or equal to 1.5, was calculated by plotting the CD34+ cell number against concentrations (log-scale) in a 4-PL curve and fitting the curve using IDBS XLfit (set model 251) in Microsoft Excel.
(In flow cytometry, cells or beads pass a laser one at a time.)

A further series deals with T1, AhR (Homo sapiens, UniProt P35869).
T1 construct: One of the resultant clones was named HEK-XRE 11.1, and used in the reporter gene assays; endogenous in cells; host or cells: HEK-XRE 11.1 (HEK cells stably carrying the AhR-responsive luciferase reporter X4-4.27 and phRL-CMV)
T1 sequence (P35869 11-848): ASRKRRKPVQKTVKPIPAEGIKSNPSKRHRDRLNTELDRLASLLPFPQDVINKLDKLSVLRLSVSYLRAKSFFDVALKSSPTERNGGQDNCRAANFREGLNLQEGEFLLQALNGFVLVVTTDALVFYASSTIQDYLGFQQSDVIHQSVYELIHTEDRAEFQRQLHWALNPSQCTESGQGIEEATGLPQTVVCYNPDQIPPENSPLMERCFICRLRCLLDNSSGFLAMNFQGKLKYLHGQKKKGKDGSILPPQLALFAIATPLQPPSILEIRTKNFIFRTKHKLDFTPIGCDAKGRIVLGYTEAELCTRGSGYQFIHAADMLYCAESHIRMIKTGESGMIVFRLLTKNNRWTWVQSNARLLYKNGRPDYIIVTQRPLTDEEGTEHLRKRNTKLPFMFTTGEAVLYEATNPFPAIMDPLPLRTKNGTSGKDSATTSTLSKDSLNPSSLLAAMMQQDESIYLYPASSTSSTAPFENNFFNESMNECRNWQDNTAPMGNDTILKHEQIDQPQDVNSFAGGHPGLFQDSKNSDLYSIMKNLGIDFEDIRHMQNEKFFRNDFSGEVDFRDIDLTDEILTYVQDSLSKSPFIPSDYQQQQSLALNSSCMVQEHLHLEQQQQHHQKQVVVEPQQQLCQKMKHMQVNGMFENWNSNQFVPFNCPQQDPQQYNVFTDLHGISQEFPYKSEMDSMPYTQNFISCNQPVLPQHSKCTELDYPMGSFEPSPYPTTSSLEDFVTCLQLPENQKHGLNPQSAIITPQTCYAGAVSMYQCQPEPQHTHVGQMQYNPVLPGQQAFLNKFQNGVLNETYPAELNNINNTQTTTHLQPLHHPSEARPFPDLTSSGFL
The experiment in a line: Inhibition of AhR-mediated gene transcription (HEK-XRE 11.1 luciferase reporter, MeBIO induction). Type of series: cell-based. To be noted: HEK-XRE 11.1 cells, MeBIO 0.1 nM, luminescence after 24 hours; Table 1. The protocol: HEK cells line was transfected with an AhR-responsive firefly luciferase reporter gene X4-4.27 and the stable transfectants generated were again transfected with phRL-CMV (a Renilla luciferase expression vector; Promega) along with pBAsi-hU6 Pur DNA (a plasmid carrying the puromycin-resistant gene; TaKaRa, Shiga, Japan), and maintained in the presence of both hygromycin B and puromycin (2 mg/mL). One of the resultant clones was named HEK-XRE 11.1, and used in the reporter gene assays.
HEK-XRE 11.1 cells were plated in 384-well plates at a density of 25,000 cells in 50 uL volume per well. The induction of ARh pathway was done by addition of MeBIO at 0.1 nM concentration. ARh antagonist compounds were then added to seeded cells in serial dilutions (8 dilutions, 1:[…] down to 5 nM) in duplicate wells. Renilla expression was not used as internal control. On each plate, Compound 1001 and SR1 were added as dose control (8 dilutions, 1:3, 5 mM down to 2.5 nM for SR1 and 2 mM down to 1 nM for compound 1001). Luminescence activity was evaluated after 24 hours culture using Lumi-384-CellTiterGlo-Corning protocol. Dose-response curves were generated using nonlinear regression in Excel.

What is called IC50 is the point on the concentration scale where inhibition reaches its midpoint. Read a low IC50 as inhibition by little substance. As to `CCOC(=O)Cc1ccc(NC(=O)c2sc3ncc(C(F)(F)F)cc3c2N)cc1` [Compound 1032], in series [1], the EC1.5 lay within 1000 to 5000 nM. Also, the IC50 on AhR is 0.05 to 0.5 µM.
Consider `COc1ccc(NC(=O)c2sc3ncc(C(F)(F)F)cc3c2N)cc1-c1ccccc1` [Compound 1033], for which the EC1.5 in series [1] was 100 to 1000 nM. This compound also showed an IC50 against AhR of 0.05 to 0.5 µM.
With `Nc1c(C(=O)Nc2ccccc2)sc2ccc(C(F)(F)F)cc12` [Compound 1034], in series [1], the EC1.5 is 100 to 1000 nM. Besides, the IC50 on AhR was less than 0.05 µM.
For `Nc1c(C(=O)Nc2ccncc2)sc2ccc(C(F)(F)F)cc12` [Compound 1035], in that order: 100 to 1000 nM and less than 0.05 µM.
For the compound `Nc1c(C(=O)Nc2cccc(Br)c2)sc2ncc(C(F)(F)F)cc12` [Compound 1036], the EC1.5 in series [1] lay within 100 to 1000 nM. The compound also gave an IC50 on AhR of less than 0.05 µM.
Turning to `N#CCc1ccc(NC(=O)c2sc3ncc(C(F)(F)F)cc3c2N)cc1` [Compound 1038], the EC1.5 in series [1] is greater than 5000 nM. For the same compound, the IC50 on AhR is less than 0.05 µM.
Take `Nc1c(C(=O)Nc2cccc3cnccc23)sc2ncc(C(F)(F)F)cc12` [Compound 1039]: the EC1.5 in series [1] is on record as greater than 5000 nM. This compound also displayed a 50% inhibitory concentration (IC50) against AhR of 0.05 to 0.5 µM.
Regarding `Nc1c(C(=O)Nc2cccc3ncccc23)sc2ncc(C(F)(F)F)cc12` [Compound 1040], in series [1], the EC1.5 is listed as greater than 5000 nM. The compound further displayed an IC50 on AhR of 0.05 to 0.5 µM.
Consider `Nc1c(C(=O)Nc2ccc3ncccc3c2)sc2ncc(C(F)(F)F)cc12` [Compound 1041], for which, in series [1], the EC1.5 is 1000 to 5000 nM. This compound came in with an IC50 at AhR of 0.05 to 0.5 µM.
Regarding `Nc1c(C(=O)Nc2cnc3ccccc3c2)sc2ncc(C(F)(F)F)cc12` [Compound 1042], the EC1.5 in series [1] lay in the range of 1000 to 5000 nM. At AhR, this compound returned a half-inhibitory concentration (IC50) greater than 0.5 µM.
Regarding `Nc1c(C(=O)Nc2ccnc3ccccc23)sc2ncc(C(F)(F)F)cc12` [Compound 1043], the EC1.5 in series [1] is reported as greater than 5000 nM. Moreover, the 50% inhibitory concentration (IC50) against AhR is greater than 0.5 µM.
Turning to `CCOC(=O)c1cnc2sc(C(=O)Nc3ccccc3)c(N)c2c1` [Compound 1044], the EC1.5 in series [1] was greater than 5000 nM. Further, the IC50 against AhR is 0.05 to 0.5 µM.
For the compound `Nc1c(C(=O)Nc2ccc(Cl)cc2)sc2ncc(C(F)(F)F)cc12` [Compound 1045], the EC1.5 in series [1] is listed as less than 100 nM. The compound also registered an IC50 against AhR of less than 0.05 µM.
For `COCCc1ccc(NC(=O)c2sc3ncc(C(F)(F)F)cc3c2N)cc1` [Compound 1046], the EC1.5 in series [1] is greater than 5000 nM. This compound also returned an IC50 at AhR of 0.05 to 0.5 µM.
For `Cc1ccc(NC(=O)c2sc3ncc(C(F)(F)F)cc3c2N)cc1` [Compound 1047], the EC1.5 in series [1] is 100 to 1000 nM. The compound further returned an IC50 on AhR of less than 0.05 µM.
As to `COc1ccc(NC(=O)c2sc3ncc(C(F)(F)F)cc3c2N)cc1` [Compound 1048], in series [1], the EC1.5 is listed as less than 100 nM. The IC50 against AhR is less than 0.05 µM.
With `Nc1c(C(=O)Nc2ccc(Cl)cc2)sc2cnc(C(F)(F)F)cc12` [Compound 1051], the EC1.5 in series [1] lay within 1000 to 5000 nM. The IC50 on AhR lay in the range of 0.05 to 0.5 µM.
As for `Cc1ccc(NC(=O)c2sc3cnc(C(F)(F)F)cc3c2N)cc1` [Compound 1052], in series [1], the EC1.5 is 1000 to 5000 nM. On AhR, the half-inhibitory concentration (IC50) lay in the range of 0.05 to 0.5 µM.
Regarding `Nc1c(C(=O)Nc2ccc(-c3ccncc3)cc2)sc2ncc(C(F)(F)F)cc12` [Compound 1056], the EC1.5 in series [1] is greater than 5000 nM. Also, the IC50 at AhR lay within 0.05 to 0.5 µM.
With `Nc1c(C(=O)Nc2cccc(-c3cccnc3)c2)sc2ncc(C(F)(F)F)cc12` [Compound 1057], in series [1], the EC1.5 was in the range of 1000 to 5000 nM. Also, the IC50 against AhR was less than 0.05 µM.
On to `Nc1c(C(=O)Nc2cccc(-c3ccncc3)c2)sc2ncc(C(F)(F)F)cc12` [Compound 1058], for which the EC1.5 in series [1] lay in the range of 100 to 1000 nM. The concentration for half-maximal inhibition (IC50) against AhR is less than 0.05 µM.
For the compound `Nc1c(C(=O)Nc2cccc(-c3ccccc3)c2)sc2ncc(C(F)(F)F)cc12` [Compound 1059], the EC1.5 in series [1] lay in the range of 1000 to 5000 nM. The compound further had a 50% inhibitory concentration (IC50) at AhR of 0.05 to 0.5 µM.
Regarding `Nc1c(C(=O)Nc2ccc(C(F)(F)F)cc2)sc2ncc(C(F)(F)F)cc12` [Compound 1061], the EC1.5 in series [1] is less than 100 nM. Moreover, the IC50 against AhR is less than 0.05 µM.
